From patent US12331041B2, “GLP-1 receptor agonists and uses thereof” (Pfizer Inc., priority 2018, dated 2025)
Structures can show the parent of a compound that is named as a salt.

How the values were obtained:
human GLP-1R [1] = target: T1, human GLP-1R (Homo sapiens, UniProt P43220, L260F); assay: CHO GLP-1R Clone C6 - Assay 2 (HTRF cAMP agonist assay); type: cell-based; conditions: for EC50: CHO clone C6, low GLP-1R density, cAMP, geometric mean; for Emax: CHO clone C6, relative to saturating full agonist GLP-1 (1 μM), arithmetic mean
T1 construct: expressed in transfected cells; host or cells: CHO Flp-In T-REx, clonal line C6 (pcDNA5-FRT-TO)

human GLP-1R [2] = target: T2, human GLP-1R (Homo sapiens, UniProt P43220, G168S); assay: CHO GLP-1R Clone H6 - Assay 1 (HTRF cAMP agonist assay); type: cell-based; conditions: for EC50: CHO Clone H6, high GLP-1R density, cAMP, geometric mean; for Emax: CHO Clone H6, relative to saturating full agonist GLP-1 7-36 (1 μM), arithmetic mean
T2 construct: expressed in transfected cells
Method in brief: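 CHO Clone H6 cells stably expressing human GLP-1R (G168S) were plated 48 h, then given compound for 30 min at 37° C in HBSS/0.1% BSA/HEPES with 100 μM IBMX and 1% DMSO. cAMP was measured by HTRF against a standard curve.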

T1 sequence (P43220 24-463 L260F): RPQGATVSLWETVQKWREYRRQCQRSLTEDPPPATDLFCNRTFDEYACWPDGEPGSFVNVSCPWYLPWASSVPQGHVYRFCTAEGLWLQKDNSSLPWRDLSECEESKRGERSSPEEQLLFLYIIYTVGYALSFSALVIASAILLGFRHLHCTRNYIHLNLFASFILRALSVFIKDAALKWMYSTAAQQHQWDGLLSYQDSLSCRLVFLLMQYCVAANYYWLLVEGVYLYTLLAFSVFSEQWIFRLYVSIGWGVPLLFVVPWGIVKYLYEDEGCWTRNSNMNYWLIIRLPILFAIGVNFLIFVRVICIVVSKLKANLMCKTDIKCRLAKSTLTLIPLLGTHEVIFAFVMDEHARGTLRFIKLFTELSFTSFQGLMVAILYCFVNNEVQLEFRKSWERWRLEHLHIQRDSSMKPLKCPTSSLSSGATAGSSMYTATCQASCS
T2 sequence (P43220 24-463 G168S): as the sequence (P43220 24-463 L260F) above, with G145S, F237L counted along it

Row | SMILES | EC50 (human GLP-1R [1]) | Emax (human GLP-1R [1]) | EC50 (human GLP-1R [2]) | Emax (human GLP-1R [2])
1 | CCn1nncc1Cn1c(CN2CCC(c3cccnc3OCc3ccc(C#N)cc3F)CC2)nc2ccc(C(=O)O)cc21 [Example 17, 2-[(4-{2-[(4-cyano-2-fluorobenzyl)oxy]pyridin-3-yl}piperidin-1-yl)methyl]-1-[(1-ethyl-1H-1,2,3-triazol-5-yl)methyl]-1H-benzimidazole-6-carboxylic acid, trifluoroacetate salt] | 150 nM | 91% | 6 nM | 86%
2 | O=C(O)c1ccc2nc(CN3CCC(c4nccnc4OCc4ccc(Cl)cc4F)CC3)n(C[C@@H]3CCO3)c2c1 [Example 19, Ammonium 2-[(4-{3-[(4-chloro-2-fluorobenzyl)oxy]pyrazin-2-yl}piperidin-1-yl)methyl]-1-[(2S)-oxetan-2-ylmethyl]-1H-benzimidazole-6-carboxylate] | 42 nM | 94% | 5.3 nM | 90%
3 | CCn1cncc1Cn1c(CN2CCC(c3nccnc3OCc3ccc(Cl)cc3F)CC2)nc2ccc(C(=O)O)cc21 [Example 20, 2-[(4-{3-[(4-chloro-2-fluorobenzyl)oxy]pyrazin-2-yl}piperidin-1-yl)methyl]-1-[(1-ethyl-1H-imidazol-5-yl)methyl]-1H-benzimidazole-6-carboxylic acid, trifluoroacetate salt] | 6.1 nM | 91% | 0.34 nM | 80%
4 | O=C(O)c1ccc2nc(CN3CCC(c4nccnc4OCc4ccc(Cl)cc4F)CC3)n(Cc3cocn3)c2c1 [Example 21, 2-[(4-{3-[(4-chloro-2-fluorobenzyl)oxy]pyrazin-2-yl}piperidin-1-yl)methyl]-1-(1,3-oxazol-4-ylmethyl)-1H-benzimidazole-6-carboxylic acid, trifluoroacetate salt] | 370 nM | 91% | 14 nM | 73%
5 | O=C(O)c1ccc2nc(CN3CCC(c4nccnc4OCc4ccc(Cl)cc4F)CC3)n(Cc3ncco3)c2c1 [Example 22, 2-[(4-{3-[(4-chloro-2-fluorobenzyl)oxy]pyrazin-2-yl}piperidin-1-yl)methyl]-1-(1,3-oxazol-2-ylmethyl)-1H-benzimidazole-6-carboxylic acid, trifluoroacetate salt] | 23 nM | 82% | 2.8 nM | 85%
6 | COCCn1c(CN2CCC(c3nccnc3OCc3ccc(Cl)cc3F)CC2)nc2ccc(C(=O)O)cc21 [Example 23, 2-[(4-{3-[(4-chloro-2-fluorobenzyl)oxy]pyrazin-2-yl}piperidin-1-yl)methyl]-1-(2-methoxyethyl)-1H-benzimidazole-6-carboxylic acid, hydrochloride salt] | 450 nM | 94% | 41 nM | 89%
7 | O=C(O)c1ccc2nc(CN3CCC(c4nccnc4OCc4ccc(Cl)cc4F)CC3)n(Cc3cnco3)c2c1 [Example 24, 2-[(4-{3-[(4-chloro-2-fluorobenzyl)oxy]pyrazin-2-yl}piperidin-1-yl)methyl]-1-(1,3-oxazol-5-ylmethyl)-1H-benzimidazole-6-carboxylic acid, trifluoroacetate salt] | 33 nM | 89% | 2 nM | 76%
8 | N#Cc1ccc(COc2nccnc2C2CCN(Cc3nc4ccc(C(=O)O)cc4n3Cc3ncco3)CC2)c(F)c1 [Example 25, 2-[(4-{3-[(4-cyano-2-fluorobenzyl)oxy]pyrazin-2-yl}piperidin-1-yl)methyl]-1-(1,3-oxazol-2-ylmethyl)-1H-benzimidazole-6-carboxylic acid, trifluoroacetate salt] | 73 nM | 91% | 6.3 nM | 80%
9 | Cn1cncc1Cn1c(CN2CCC(c3nccnc3OCc3ccc(Cl)cc3F)CC2)nc2ccc(C(=O)O)cc21 [Example 26, 2-[(4-{3-[(4-chloro-2-fluorobenzyl)oxy]pyrazin-2-yl}piperidin-1-yl)methyl]-1-[(1-methyl-1H-imidazol-5-yl)methyl]-1H-benzimidazole-6-carboxylic acid, trifluoroacetate salt] | 38 nM | 86% | 5.1 nM | 86%
10 | CCn1cncc1Cn1c(CN2CCC(c3nccnc3OCc3ccc(C#N)cc3F)CC2)nc2ccc(C(=O)O)cc21 [Example 27, 2-[(4-{3-[(4-cyano-2-fluorobenzyl)oxy]pyrazin-2-yl}piperidin-l-yl)methyl]-1-[(1-ethyl-1H-imidazol-5-yl)methyl]-1H-benzimidazole-6-carboxylic acid, trifluoroacetate salt] | 16 nM | 85% | 0.84 nM | 86%
11 | Cn1c(CN2CCC(c3nccnc3OCc3ccc(Cl)cc3F)CC2)nc2ncc(C(=O)O)cc21 [Example 30, 2-[(4-{3-[(4-chloro-2-fluorobenzyl)oxy]pyrazin-2-yl}piperidin-1-yl)methyl]-1-methyl-1H-imidazo[4,5-b]pyridine-6-carboxylic acid, hydrochloride salt] | 2800 nM | 110% | 140 nM | 79%
12 | O=C(O)c1ccc2nc(CN3CCN(c4cccnc4OCc4ccc(Cl)cc4F)CC3)n(C[C@@H]3CCO3)c2c1 [Example 33, Ammonium 2-[(4-{2-[(4-chloro-2-fluorobenzyl)oxy]pyridin-3-yl}piperazin-1-yl)methyl]-1-[(2S)-oxetan-2-ylmethyl]-1H-benzimidazole-6-carboxylate] | 84 nM | 110% | 3.1 nM | 93%
13 | Cn1cncc1Cn1c(C2CC23CCN(c2cccc(OCc4ccc(C#N)cc4F)n2)CC3)nc2ccc(C(=O)O)cc21 (stereo not drawn) [Example 37, 2-(6-{6-[(4-cyano-2-fluorobenzyl)oxy]pyridin-2-yl}-6-azaspiro[2.5]oct-1-yl)-1-[(1-methyl-1H-imidazol-5-yl)methyl]-1H-benzimidazole-6-carboxylic acid, trifluoroacetate salt] | 190 nM | 92% | 9.3 nM | 88%
14 | CCn1cncc1Cn1c(C2CC23CCN(c2nc(OCc4ccc(Cl)cc4F)ncc2F)CC3)nc2ccc(C(=O)O)cc21 (stereo not drawn) [Example 39, 2-(6-{2-[(4-chloro-2-fluorobenzyl)oxy]-5-fluoropyrimidin-4-yl}-6-azaspiro[2.5]oct-1-yl)-1-[(1-ethyl-1H-imidazol-5-yl)methyl]-1H-benzimidazole-6-carboxylic acid, trifluoroacetate salt, from P7] | 29 nM | 95% | 1.6 nM | 90%
15 | Cn1c(C2CC23CCN(c2nc(OCc4ccc(Cl)cc4F)ncc2F)CC3)nc2ccc(C(=O)O)nc21 (stereo not drawn) [Example 40, 2-(6-{2-[(4-chloro-2-fluorobenzyl)oxy]-5-fluoropyrimidin-4-yl}-6-azaspiro[2.5]oct-1-yl)-3-methyl-3H-imidazo[4,5-b]pyridine-5-carboxylic acid, trifluoroacetate salt, from P7] | 2000 nM | 100% | 150 nM | 77%
